{
  "source": "patent US7939567B2",
  "about": "“Dextromethorphan-based method for treating acne” (Blue Blood Biotech Corp., priority 2006, dated 2011)",
  "key": {"TNF-α": {"test_system": "TNF-α", "assay": "LPS-induced macrophage release of TNF-α (THP-1, ELISA)", "assay_type": "cell-based, human", "settings": "for concentration of TNF-α in the medium of THP-1 cells after LPS stimulation: pretreated 1 hour, various concentrations, then LPS 24 hours", "experimental": "(§1) The monocytic THP-1 cells were cultured and differentiated into macrophages. The macrophages were pretreated with various concentrations of Dextromethophan or naloxone for 1 hour and subsequently incubated with lipopolysaccharide (LPS) for 24 hours.\n(§2) RPMI 1640 medium, phorbol 12-myristate-13-acetate (PMA), LPS (Escherichia coli 0111:B4) and naloxone were purchased from Sigma. The human THP-1 monocytic cell line was purchased from Food Industry Research and Development Institute, Hsin Chu, Taiwan. Levels of tumor necrosis factor-α (TNF-α), interleukin-6 (IL-6) and monocyte chemoattractant protein-1 (MCP-1) in medium were determined with monoclonal antibody based ELISA kits purchased from R&D Systems (Minneapolis, Minn., USA), and all animal experiments were approved by the Institutional Animal Care and Use Committee.\nThe THP-1 cells were grown in RPMI-1640 medium containing 10% fetal bovine serum at 37° C. in 5% CO2. The cells were differentiated to macrophages after treatment with 100 nM PMA to the culture for 24 hours. The cell suspension (5×10^5) was added in 0.5 mL into each well of the tissue culture plates. LPS was dissolved in sterile water and stored at −70[…] in aliquots. In treatment group, the THP-1 cell culture was pretreated for 1 hour with various concentrations of dextromethorphan or naloxone and followed by treatment with 10 μg/mL LPS for up to 24 hours. […] The levels of TNF-α, IL-6 and MCP-1 in the supernatants were determined using ELISA kits.\n(§3) The inflammatory reaction can be inhibited by dextromethorphan at less than 0.01 μM. The THP-1 cell treated with LPS at 1 Unit/ml in the presence of dextromethorphan for 24 hrs and the TNF-α and IL-6 released in the culture medium was measured with ELISA (FIG. 1). […] The results are expressed as mean±SD of 3 experiments. ** p<0.01 and *** p<0.001 are compared with the LPS-treated cultures.\n(§4) Effect of naloxone treatment on the LPS-induced macrophage release of TNF-α (A), IL-6 (B) and MCP-1 (C). […] The results are expressed as mean±SD of 3 experiments. * p<0.05; ** p<0.01; *** p<0.001 compared with the LPS-treated cultures (FIG. 2)."}, "MCP-1": {"test_system": "MCP-1", "assay": "LPS-induced macrophage release of MCP-1 (THP-1, ELISA)", "assay_type": "cell-based, human", "settings": "pretreated 1 hour, various concentrations, then LPS 24 hours", "experimental": "as §1, §2\nThe THP-1 cells were grown in RPMI-1640 medium containing 10% fetal bovine serum at 37° C. in 5% CO2. The cells were differentiated to macrophages after treatment with 100 nM PMA to the culture for 24 hours. […] The levels of TNF-α, IL-6 and MCP-1 in the supernatants were determined using ELISA kits.\nas §4"}, "IL-6": {"test_system": "IL-6", "assay": "LPS-induced macrophage release of IL-6 (THP-1, ELISA)", "assay_type": "cell-based, human", "settings": "pretreated 1 hour, various concentrations, then LPS 24 hours", "experimental": "as §1, §2\nThe THP-1 cells were grown in RPMI-1640 medium containing 10% fetal bovine serum at 37° C. in 5% CO2. […] The levels of TNF-α, IL-6 and MCP-1 in the supernatants were determined using ELISA kits.\nas §3, with “cultures. […]” for “cultures.”"}, "Propionibacterium acnes": {"test_system": "Propionibacterium acnes", "assay": "MIC test of P. acnes (broth dilution, OD595)", "assay_type": "cell-based", "design": "key: +: Growth Inhibition; —: No Growth Inhibition", "settings": "anaerobic, 37° C., 96 hours", "experimental": "Prepared DM stock solution in 500,000 ppm (50%). Added 0.25 g DM into […] DMSO and stirred until mixed well. Then serial diluted 500,000 ppm DM. Centrifuged 5 ml Propionibacterium acnes in RCM (Reinforced Clostridial Medium) culture. Adjusted concentration of bacteria cell in medium by 20 times dilution about OD595=0.1×10^6 CFU/ml. Dispersed 200 μl bacteria cell in medium in aliquot to each 96-well plate. Mixed medium including bacteria cell and 2 μl DM, triplicate tests at each concentration. Bacteria cultured under anaerobic at 37° C. for 96 hours and measured the value at OD595. MIC meant the lowest concentration of anti-bacterial agent that sufficient to suppress the growth of bacteria (e.g. growth inhibition)."}, "E. coli": {"test_system": "E. coli", "assay": "DM disc diffusion on E. coli lawn", "assay_type": "cell-based", "settings": "37° C., 96 hours", "experimental": "Base for antimicrobial disk diffusion Susceptibility Testing is made of Mueller Hinton II agar obtained from Becton, Dickinson and Company, France.\n(§5) Prepared Mueller-Hinton-II-agar by suspending 38 g of the powder in 1L of double-distilled water. Autoclaved the agar at 121° C. for 15 min. t The agar was poured into each agar plate and waited for solidifying. E. coli of 1×10^5 CFU in 100 μl medium was spread on to the agar plate and were grown for 96 hours."}, "[1]": {"settings": "humans, oral dosage form, either alone or with quinidine; cited from earlier work"}, "TNF-a": {"test_system": "TNF-a", "settings": "LPS-induced endotoxemia in rodents; mitigation of circulatory failure and mortality; cited from earlier work"}, "P. acnes": {"test_system": "P. acnes", "assay": "DM disc diffusion on P. acnes lawn", "assay_type": "cell-based, Propionibacterium acnes", "settings": "37° C., 96 hours", "experimental": "Spread 0.1 ml medium including bacteria cells which OD595 value was about 0.1×10^6 CFU/ml onto RCM agar plate. Pasted 0.8 cm filter paper and dropped 20 μl of DM into it. Bacteria were cultured under anaerobic at 37° C. for 96 hours and the size of the antibiotic circle was measured."}, "Staphylococcus aureaus": {"test_system": "Staphylococcus aureaus", "assay": "DM disc diffusion on S. aureus lawn", "assay_type": "cell-based", "settings": "S. aueaus lawn, 37° C., 96 hours", "experimental": "Based for antimicrobial disk diffusion Susceptibility Testing is Mueller Hinton II agar obtained from Becton, Dickinson and Company, France.\nas §5, with “min.” for “min. t”, “solidifying. S. aureaus” for “solidifying. E. coli”, “of 10^5” for “of 1×10^5”, “medium were” for “medium was”, “on” for “on to”"}, "Bacteroides fragilis": {"test_system": "Bacteroides fragilis", "assay": "MIC test of B. fragilis (thioglycollate broth)", "assay_type": "cell-based", "design": "key: +: Growth Inhibition; —: No Growth Inhibition", "settings": "anaerobic, 24 h", "experimental": "Bacteroides fragilis growing in 18-24 hours in the anaerobic thioglycollate broth was used to formulate the suspension of bacteria cells of McFarland 0.5. Diluted 0.5 g/ml DMSO stock solution with anaerobic Thioglycollate broth. Added 1000 μl anaerobic Thioglycollate broth into 1000 μl of DM diluent with 1:1 ratio, and then put into the anaerobic incubator to incubate for 24 h."}},
  "data": [
    {"smiles": "C=CCN1CC[C@]23c4c5ccc(O)c4O[C@H]2C(=O)CC[C@@]3(O)[C@H]1C5", "note": "[naloxone, 17-allyl-4,5α-epoxy-3,14-dihydroxymorphinan-6-one]", "values": [
      {"measurement": "concentration of TNF-α in the medium of THP-1 cells after LPS stimulation", "setting": "TNF-α", "result": "significantly reduced"},
      {"measurement": "concentration of MCP-1 in the medium of THP-1 cells after LPS stimulation", "setting": "MCP-1", "result": "significantly reduced"},
      {"measurement": "concentration of IL-6 in the medium of THP-1 cells after LPS stimulation", "setting": "IL-6", "result": "significantly reduced"}
    ]},
    {"smiles": "COc1ccc2c(c1)[C@]13CCCC[C@@H]1[C@H](C2)N(C)CC3", "note": "[DM, (+)-3-methoxy-17-methyl-9a,13a,14a-morphinan]", "values": [
      {"measurement": "concentration at which the inflammatory reaction can be inhibited", "setting": "TNF-α; THP-1 cell treated with LPS for 24 hrs, TNF-α and IL-6 released in medium measured with ELISA", "result": "less than 0.01 μM"},
      {"measurement": "concentration of TNF-α in the medium of THP-1 cells after LPS stimulation", "setting": "TNF-α", "result": "significantly reduced"},
      {"measurement": "Growth Inhibition", "setting": "Propionibacterium acnes; DM 125 ppm (0.0125%)", "result": "—"},
      {"measurement": "Growth Inhibition", "setting": "Propionibacterium acnes; DM 250 ppm (0.025%)", "result": "—"},
      {"measurement": "Growth Inhibition", "setting": "Propionibacterium acnes; DM 500 ppm (0.05%)", "result": "+"},
      {"measurement": "Growth Inhibition", "setting": "Propionibacterium acnes; DM 1000 ppm (0.1%)", "result": "+"},
      {"measurement": "Growth Inhibition", "setting": "Propionibacterium acnes; DM 1250 ppm (0.125%)", "result": "+"},
      {"measurement": "Growth Inhibition", "setting": "Propionibacterium acnes; DM 2500 ppm (0.25%)", "result": "+"},
      {"measurement": "Growth Inhibition", "setting": "Propionibacterium acnes; DM 5000 ppm (0.5%)", "result": "+"},
      {"measurement": "Diameter of clear zone", "setting": "E. coli; 2.5% DM", "result": 9.5, "unit": "mm"},
      {"measurement": "Diameter of clear zone", "setting": "E. coli; 5% DM", "result": 13, "unit": "mm"},
      {"measurement": "Diameter of clear zone", "setting": "E. coli; 10% DM", "result": 18, "unit": "mm"},
      {"measurement": "concentration of MCP-1 in the medium of THP-1 cells after LPS stimulation", "setting": "MCP-1", "result": "significantly reduced"},
      {"measurement": "concentration of IL-6 in the medium of THP-1 cells after LPS stimulation", "setting": "IL-6", "result": "significantly reduced"},
      {"measurement": "well tolerated oral dosage", "setting": "[1]", "result": "up to 120 milligrams (mg) per day"},
      {"measurement": "effect on TNF-a, NO and superoxide anion", "setting": "TNF-a", "result": "inhibits"},
      {"measurement": "Diameter of clear zone", "setting": "P. acnes; 2.5% DM, Disc No. 6, anaerobic", "result": 12, "unit": "mm"},
      {"measurement": "Diameter of clear zone", "setting": "P. acnes; 5% DM, Disc No. 5, anaerobic", "result": 34, "unit": "mm"},
      {"measurement": "Diameter of clear zone", "setting": "Staphylococcus aureaus; 5% DM", "result": 10, "unit": "mm"},
      {"measurement": "Diameter of clear zone", "setting": "Staphylococcus aureaus; 10% DM", "result": 14, "unit": "mm"},
      {"measurement": "Growth Inhibition", "setting": "Bacteroides fragilis; DM 500 ppm (0.05%)", "result": "—"},
      {"measurement": "Growth Inhibition", "setting": "Bacteroides fragilis; DM 1000 ppm (0.1%)", "result": "—"},
      {"measurement": "Growth Inhibition", "setting": "Bacteroides fragilis; DM 1250 ppm (0.125%)", "result": "+"},
      {"measurement": "Growth Inhibition", "setting": "Bacteroides fragilis; DM 2500 ppm (0.25%)", "result": "+"},
      {"measurement": "Growth Inhibition", "setting": "Bacteroides fragilis; DM 5000 ppm (0.5%)", "result": "+"}
    ]},
    {"smiles": "Oc1cc(Cl)ccc1Oc1ccc(Cl)cc1Cl", "note": "[Triclosan]", "values": [
      {"measurement": "Diameter of clear zone", "setting": "P. acnes; 0.1% Triclosan, Disc No. 8, anaerobic", "result": 30, "unit": "mm"}
    ]}
  ]
}
